#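 Here, GI50 denotes the concentration required for 50% inhibition of growth. TGI marks complete inhibition of growth.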
# What was measured:
# Test in all cases: DTP human tumour cell line panel, 384-well format
# [1] = system: SR leukemia
# [2] = system: HCT-15 colon
# [3] = system: HCT-116 colon
# [4] = system: 786-0 renal
# [5] = system: ACHN renal
# [6] = system: OVCAR-8 ovarian
# [7] = system: OVCAR-5 ovarian
# [8] = system: NCI/ADR-RES ovarian
# [9] = system: HOP-92 NSCLC
# [10] = system: SK-OV-3 ovarian
# [11] = system: RPMI-8226 leukemia
# [12] = system: K-562 leukemia
# [13] = system: U251 glioblastoma
# [14] = system: HL-60(TB) leukemia
# [15] = system: NCI-H460 NSCLC
# [16] = system: MALME-3M melanoma
# [17] = system: EKVX NSCLC
# [18] = system: HCC-2998 colon
# [19] = system: OVCAR-3 ovarian
# [20] = system: M14 melanoma
# [21] = system: A498 renal
# [22] = system: SK-MEL-5 melanoma
# [23] = system: COLO 205 colon
# [24] = system: TK-10 renal
# [25] = system: MDA-MB-435 melanoma
# [26] = system: CCRF-CEM leukemia
# [27] = system: BT-549 breast
# [28] = system: UO-31 renal
# [29] = system: KM12 colon
# [30] = system: UACC-62 melanoma
# [31] = system: MOLT-4 leukemia
# [32] = system: NCI-H23 lung
# [33] = system: T-47D breast
# [34] = system: NCI-H522 lung
# [35] = system: IGROV1 ovarian
# [36] = system: NCI-H322M lung
# [37] = system: MDA-MB-468 breast
# [38] = system: SF-539 CNS
# [39] = system: SNB-75 CNS
# [40] = system: SW-620 colon
# [41] = system: SF-268 CNS
# [42] = system: UACC-257 melanoma
# [43] = system: SNB-19 CNS
# [44] = system: OVCAR-4 ovarian
# [45] = system: SF-295 CNS
# [46] = system: SK-MEL-28 melanoma
# [47] = system: LOX IMVI melanoma
# [48] = system: DU-145 prostate
# [49] = system: PC-3 prostate
# [50] = system: SK-MEL-2 melanoma
# [51] = system: MDA-MB-231 breast
# [52] = system: HOP-62 NSCLC
# [53] = system: A549 NSCLC
# [54] = system: RXF 393 renal
# [55] = system: NCI-H226 lung
# [56] = system: HS 578T breast
# [57] = system: CAKI-1 renal
# [58] = system: SN12C renal
smiles,measurement,setting,value
CC[C@@]1(O)C(=O)OCc2c1cc1n(c2=O)Cc2c-1nc1cc(F)c(C)c3c1c2[C@@H](NC(=O)CO)CC3,GI50,[1],< 10 nM
same,TGI,[1],< 10 nM
same,GI50,[2],17.5 nM
same,TGI,[2],1180 nM
same,GI50,[3],< 10 nM
same,TGI,[3],159 nM
same,GI50,[4],< 10 nM
same,TGI,[4],10.1 nM
same,GI50,[5],< 10 nM
same,TGI,[5],11.1 nM
same,GI50,[6],< 10 nM
same,TGI,[6],104 nM
same,GI50,[7],35.2 nM
same,TGI,[7],268 nM
same,GI50,[8],53.6 nM
same,TGI,[8],256 nM
same,GI50,[9],< 10 nM
same,TGI,[9],58.9 nM
same,GI50,[10],< 10 nM
same,TGI,[10],28.1 nM
same,GI50,[11],< 10 nM
same,TGI,[11],20.6 nM
same,GI50,[12],< 10 nM
same,TGI,[12],171 nM
same,GI50,[13],< 10 nM
same,TGI,[13],13.6 nM
same,GI50,[14],< 10 nM
same,TGI,[14],< 10 nM
same,GI50,[15],< 10 nM
same,TGI,[15],23.4 nM
same,GI50,[16],< 10 nM
same,TGI,[16],237 nM
same,GI50,[17],42.9 nM
same,TGI,[17],2650 nM
same,GI50,[18],15.6 nM
same,TGI,[18],212 nM
same,GI50,[19],< 10 nM
same,TGI,[19],38.4 nM
same,GI50,[20],< 10 nM
same,TGI,[20],12.8 nM
same,GI50,[21],< 10 nM
same,TGI,[21],142 nM
same,GI50,[22],< 10 nM
same,TGI,[22],16.4 nM
same,GI50,[23],< 10 nM
same,TGI,[23],537 nM
same,GI50,[24],47.6 nM
same,TGI,[24],1660 nM
same,GI50,[25],24.3 nM
same,TGI,[25],467 nM
same,GI50,[26],< 10 nM
same,TGI,[26],< 10 nM
same,GI50,[27],< 10 nM
same,TGI,[27],40.2 nM
same,GI50,[28],20.6 nM
same,TGI,[28],116 nM
same,GI50,[29],11.6 nM
same,TGI,[29],149 nM
same,GI50,[30],< 10 nM
same,TGI,[30],< 10 nM
same,GI50,[31],< 10 nM
same,TGI,[31],< 10 nM
same,GI50,[32],< 10 nM
same,TGI,[32],< 10 nM
same,GI50,[33],< 10 nM
same,TGI,[33],101 nM
same,GI50,[34],< 10 nM
same,TGI,[34],19 nM
same,GI50,[35],12.8 nM
same,TGI,[35],1140 nM
same,GI50,[36],54.2 nM
same,TGI,[36],684 nM
same,GI50,[37],< 10 nM
same,TGI,[37],< 10 nM
same,GI50,[38],< 10 nM
same,TGI,[38],15.6 nM
same,GI50,[39],< 10 nM
same,TGI,[39],10.8 nM
same,GI50,[40],< 10 nM
same,TGI,[40],223 nM
same,GI50,[41],< 10 nM
same,TGI,[41],< 10 nM
same,GI50,[42],19.4 nM
same,TGI,[42],226 nM
same,GI50,[43],< 10 nM
same,TGI,[43],12.7 nM
same,GI50,[44],131 nM
same,TGI,[44],419 nM
same,GI50,[45],< 10 nM
same,TGI,[45],< 10 nM
same,GI50,[46],< 10 nM
same,TGI,[46],270 nM
same,GI50,[47],< 10 nM
same,TGI,[47],37.5 nM
same,GI50,[48],< 10 nM
same,TGI,[48],< 10 nM
same,GI50,[49],97.3 nM
same,TGI,[49],3880 nM
same,GI50,[50],33.1 nM
same,TGI,[50],105 nM
same,GI50,[51],99.6 nM
same,TGI,[51],1520 nM
same,GI50,[52],< 10 nM
same,TGI,[52],< 10 nM
same,GI50,[53],49.8 nM
same,TGI,[53],944 nM
same,GI50,[54],< 10 nM
same,TGI,[54],< 10 nM
same,GI50,[55],< 10 nM
same,TGI,[55],49.6 nM
same,GI50,[56],< 10 nM
same,TGI,[56],2360 nM
same,GI50,[57],< 10 nM
same,TGI,[57],103 nM
same,GI50,[58],< 10 nM
same,TGI,[58],< 10 nM

# — PubChem BioAssay (NCI)
